For data set [1], the system named is IPNV. The data set is described as follows: IPNV viral load (VP2 qRT-PCR) in MLN4924-treated SHK-1 cells. The class given is cell-based, infectious pancreatic necrosis virus. The conditions noted are these: 100 nM MLN4924 24 hours prior to infection, during the course of infection, vs DMSO only. The protocol: To evaluate the viral load in cells, relative transcript level of IPNV VP2 to ef1a in the total RNAs was analysed by qRT-PCR using Luna Universal One-Step RT-qPCR reagent (NEB, Ipswich, USA) and LightCycler 480 Instrument (Roche, Basel, Switzerland) in duplicates. Each reaction consisted of 0.5 μL RNAs, 1× Reaction Mix, 1× Enzyme Mix, 0.4 μM each primer (Supplementary Table 4) and nuclease-free water up to 10 μL. The thermocycling initiated with reverse transcription at 55° C. for 10 min and initial denaturation at 95° C. for 1 min, followed by 40 cycles of denaturation at 95° C. for 10 sec and extension at 60° C. for 30 sec with plate read, and melt curve analysis. Efficiency and linearity (R^2) of each primer pair were checked using serial dilution of total RNAs in duplicates. The relative viral transcript level of IPNV VP2 versus ef1a in the KO SHK-1 cells compared to wild type SHK-1 cells at each timepoint was calculated using 2^−ΔΔCT.
Lyophilised MLN4924 (pevonedistat) was resuspended in DMSO. MLN4924 was titrated for cytotoxicity on CHSE-214 and SHK-1 cells. […] The impact of the MLN4924 on cell viability was assessed by sampling at 24, 48, 72, and 96 hpi and comparing cell survival in all challenged groups (including the DMSO control) versus the unchallenged control at the same timepoint.
On the technique in general: In qPCR the cycle at which signal appears reflects the starting amount.

In data set [2] the test system is IPNV viral proteins. The data set is described as follows: Western blot of IPNV viral proteins from MLN4924-treated SHK-1 cells. In kind it is cell-based, infectious pancreatic necrosis virus. The conditions noted are these: SHK-1 cells treated with MLN4924 or DMSO, 120 h, MOI 0.01. The protocol: To evaluate the infectivity of viral output, cells and supernatant were harvested at 120 hpi and assessed by TCID50 on naïve CHSE-214 cells. For semi-quantification of viral protein output, western blot against viral proteins was performed. At 120 hpi, supernatant from a 150 mm dishes containing SHK-1 cells treated with either 100 nM MLN4924 or DMSO for 24 hours before infection with IPNV at an MOI of 0.01 was collected, sterile filtered, and ultra-centrifuged at 22000 x g for 1 hour. The ultra-centrifuged virus pellet from the supernatant was resuspended in Laemmli buffer. The cell-associated virus was also analysed by harvesting cells in Laemmli buffer. These samples were separated by PAGE (4-15% Mini-Protean, BIORAD), transferred onto nitrocellulose membrane, and the viral protein was visualised using a monoclonal antibody that recognises all IPN viral proteins, and secondary LICOR antibodies.
A general note: A western blot detects proteins with antibodies after separation by electrophoresis.

The test system of data set [3] is SHK-1 cells. Briefly: MLN4924 cell viability in SHK-1 cells. In kind it is cell-based, Atlantic salmon. The conditions noted are these: MLN4924 treatment compared to DMSO-treated controls. The protocol: Lyophilised MLN4924 (pevonedistat) was resuspended in DMSO. MLN4924 was titrated for cytotoxicity on CHSE-214 and SHK-1 cells. SHK-1 or CHSE-214 cells were seeded at 80% confluency and treated with 0 (DMSO only), 100 nM, 1 μM or 5 μM MLN4924 for 24 hours prior to inoculation with IPNV at an MOI of 0.01. The impact of the MLN4924 on cell viability was assessed by sampling at 24, 48, 72, and 96 hpi and comparing cell survival in all challenged groups (including the DMSO control) versus the unchallenged control at the same timepoint.

The subject of data set [4] is RTG-2 cells. Briefly: MLN4924 cytotoxicity test (cell viability assay) in RTG-2 cells. In kind it is cell-based, rainbow trout (Oncorhynchus mykiss). The conditions noted are these: wild type RTG-2 cells; 0.1, 1 and 5 uM; 24, 48, 72 and 96 hours post treatment. The protocol: Initially, four different concentrations of MLN4924 0 (DMSO-only), 0.1, 1 and 5 uM, were tested in fresh RTG-2 cells to investigate if they exerted toxicity in wild type RTG-2 cells. A cell viability assay was used to assess any present cytopathic effect at four different time points: 24, 48, 72 and 96 hours post treatment with the four different concentrations of the inhibitor.

For data set [5], the system named is IPNV. The data set is described as follows: Supernatant infectivity assay (TCID50) of MLN4924 and IPNV-treated RTG-2 cells. The class given is cell-based, infectious pancreatic necrosis virus. The procedure: Wild type RTG-2 cells were seeded in 4× quadruplicates in 24-well plates and were allowed to settle for 24 hours. The four quadruplicates were then treated with DMSO-only, 0.1, 1 and 5 uM of MLN4924, respectively. 24 hours after the MLN4924 treatment, the inhibitor inoculum was removed and IPNV in a dose of 10-5 TCID50/mL was inoculated in the cells, along with the four doses of MLN4924. Supernatants were collected at 48 and 72 hpi, and were stored at −80° C. until use.
TCID50 (Median Tissue Culture Infectious Dose) assay was used to assess the titer of the viral supernatants, harvested from the MLN4924 and IPNV-treated cells at 72 hpi. Firstly, 20,000 cells/well were seeded in wells of a 96-well plate (in four rows of 10 wells for each supernatant, for 4 replicates) and were allowed to settle and grow overnight. The following day, the media was removed with a multichannel pipette and replaced with serial 10-fold dilutions (starting from the neat original viral supernatants up to 10^−7 dilution). The latter were prepared in 2% FBS media (with penicillin streptomycin). The seeded cells were inoculated with these serial dilutions (four replicates per virus dilution, 100 uL/96-well). The last two wells of each row were used as controls, meaning that no virus was added there, only media. The 96-well plate was incubated at 15° C. for the duration of the experiment. The Cytopathic Effect (CPE) of the viral infection was assessed using CellTiter-Glo® Luminescent Cell Viability Assay (Promega, Madison, USA), at 30 hpi. The 50% endpoint titer was further calculated using the Reed and Muench method^16.
MLN4924 inhibitor was used to inhibit nae1 activity. Four supernatants of each dose group collected from the MLN4924 and IPNV-treated cells at 72 hpi were tested in two independent TCID50 infectivity assays followed by a cell viability assay at 30 hpi and use of the Reed and Muench method to analyze the cytopathic effect present in the wells.

Data set [6] relates to DNA and RNA viruses. The conditions noted are these: in vitro, multitude of DNA and RNA viruses (ref 15); cited from earlier work.

Each structure is given as a SMILES string.

For `NS(=O)(=O)OC[C@@H]1C[C@@H](n2ccc3c(N[C@H]4CCc5ccccc54)ncnc32)C[C@@H]1O` [MLN4924], the “IPNV RNA copy number” value in data set [1] was “little difference”. Further, in data set [2], the “abundance of IPNV viral proteins (western blot)” value is “notable decrease”. Also, in data set [3], the cell viability entry was “no associated decrease in cell viability”. The “cytotoxicity (cell viability assay)” value in data set [4] is reported as “none of the doses were cytotoxic”. The “productive IPNV viral output (TCID50)” value is “effect similar to the DMSO-only cell group” in data set [5] (0.1 μM MLN4924, 72 hpi supernatants); “marked drop” in data set [5] (1 μM MLN4924, 72 hpi supernatants, vs DMSO-only); “marked drop” in data set [5] (5 μM MLN4924, 72 hpi supernatants, vs DMSO-only). The anti-viral activity entry in data set [6] is reported as “broad-acting anti-viral activity”.
